≈ marks a conversion by molar mass, not a printed value. Where “and” joins values, the source holds several entries; their conditions need not be identical. Equal values may be shown once.
Columns and labels:
[1] = Cyclic voltammetry: formal redox potential, peak current ratio, electrochemical reversibility; type: physicochemical; details: for formal redox potential E0': midpoint of CV peak potentials; for pH dependence (slope) of E0': pH 0 to pH 13; for change of E0' from acidic (pH 0) to alkaline (pH 13): 13 pH units
Protocol: The investigated compounds were used as-purchased and without any purification. […] For each series of CVs, a freshly polished electrode was used. The CVs for soluble compounds in 1 mM concentration were recorded in a glass beaker with a customized lid in nitrogen purged solutions of three different pHs, namely pH 0 (1 M H2SO4), pH 7 (0.5 M phosphate buffer) and pH 13 (1 M NaOH). The pH of the NaOH solution is taken as 13 to account for carbonization of the solution with exposure to air. A background CV was recorded before each CV experiment to exclude background contaminations. The CVs of insoluble compounds in 1 M H2SO4, or 0.5 M phosphate buffer were recorded as follows: 6 mL of the supporting electrolyte was mixed with approximately 4 mL of acetone, and then a small amount of the quinone was added so that its concentration was around 1 mM.
Each CV was analyzed in terms of peak potentials and peak currents. Peak currents were determined by subtracting a polynomial fit of the background from the recorded current as exemplified in Supplementary, S1. A plot of the absolute values of the peak currents to the square root of the scan rate was constructed and, when reasonable, a linear fit included to evaluate the electrochemical (Nernstian) reversibility of the electrochemical reaction. The peak current Ip for reversible reactions are given by equation (1).
Where F is the Faraday constant, R the gas constant, T the temperature, n the number of electron transferred, A the area of the electrode, DOthe diffusion coefficient and CO^*the bulk concentration of the analyte and v the scan rate. The peak current ratio is expected to be close to one for reversible species. The formal redox potential (E^0’), which is the adjusted form of the standard redox potential, where effects of the medium is taken into account, is reported here as the midpoint potential between the two peak potentials in the CV[24]. All half-cell potentials in this work refer to the normal hydrogen electrode (VNHE).

[2] = Aqueous solubility estimation (OECD test #105) in 1 M supporting electrolytes
Protocol: After each addition the test tube was ultrasonicated and/or shaken vigorously using a Vortex Generator for at least 10 minutes at room temperature. Then the tube was inspected visually for undissolved sample and the addition of supporting electrolyte solution continued until the sample seemed just dissolved. The volumes just before and after full dissolution are used for calculating the solubility interval (Supplementary, S4 and S5) and the solubility is estimated as the average between the two.

[3] = 1 M H2SO4 supporting electrolyte prepared from MilliQ water, aqueous buffer, thermodynamic from solid, Solubility, 1 M H2SO4, room temperature, interval just after / before full dissolution
[4] = 1 M KCl supporting electrolyte prepared from MilliQ water, saline or isotonic, thermodynamic from solid, Solubility, 1 M KCl, room temperature
[5] = pH 0 (1 M H2SO4), about 1 mM, acetone added for insoluble compounds
[6] = 1 M KOH supporting electrolyte prepared from MilliQ water, aqueous buffer, thermodynamic from solid, Solubility, 1 M KOH, room temperature
[7] = water / supporting electrolytes as worded
[8] = aqueous buffer, thermodynamic from solid, Solubility
[9] = saline or isotonic, thermodynamic from solid, Solubility

SMILES | Electrochemical reversibility ([1]; pH 13) | Peak current ratio ([1]; pH 13) | solubility [2, 3] | solubility [2, 4] | formal redox potential E0' [1, 5] | Electrochemical reversibility ([1]; pH not specified) | formal redox potential E0' ([1]; pH 7 (0.5 M phosphate buffer)) | formal redox potential E0' ([1]; pH 13 (1 M NaOH)) | Peak current ratio ([1]; pH 0) | Peak current ratio ([1]; pH 7) | solubility [2, 6] | other results
O=C1c2cccc(O)c2C(=O)c2cccc(O)c21 [AQDH(1,5), 1,5-dihydroxy-9,10-anthraquinone] | Quasireversible | 0.79(9) | < 10 mM | < 10 mM |  |  |  |  |  |  |  | 
Nc1c(S(=O)(=O)[O-])cc(Br)c2c1C(=O)c1ccccc1C2=O.[Na+] [AQS(2)NBr, 1-amino-4-bromo-9,10-anthraquinone-2-sulfonate sodium] |  |  |  |  | 0.14(4) VNHE | Quasireversible |  |  |  |  |  | 
O=C1c2ccc(O)c(O)c2C(=O)c2c(O)ccc(O)c21 [AQTH(1,2), 1,2,5,8-tetrahydroxy-9,10-anthraquinone] | Reversible | 0.96(6) | < 10 mM | < 10 mM | -0.084(5) VNHE |  | -0.414(3) VNHE | -0.69(1) VNHE |  |  |  | 
O=C1c2c(O)ccc(O)c2C(=O)c2c(O)ccc(O)c21 [AQTH(1,4), 1,4,5,8-tetrahydroxy-9,10-anthraquinone] | Reversible | 1.2(1) | < 10 mM | < 10 mM | 0.200(4) VNHE |  |  |  |  |  |  | E0' more negative compared to AQDH(1,4) ([1]; alkaline): approximately 100 mV; solubility compared to AQDH(1,4) ([2]; alkaline): only half the solubility
Cc1cc(O)c2c(c1)C(=O)c1cc(O)cc(O)c1C2=O [AQTrHM, 1,3,8-trihydroxy-6-methylanthracene-9,10-dione] |  | 0.2(2) | < 10 mM | < 10 mM | -0.04(1) VNHE | Reversible | -0.386(2) VNHE | -0.63(1) VNHE | 0.15(4) | 0.19(6) |  | 
O=C1C=C(O)C(=O)C=C1O [BQ(1,4)DH, 2,5-dihydroxy-1,4-benzoquinone] |  | 0.8(1) | < 10 mM | < 10 mM | 0.382(4) VNHE and 0.38 VNHE | Quasireversible |  |  | 0.87(4) | 1.1(2) |  | reduction of E0' compared to the parent BQ compound ([1]; pH 0): 300 mV; pH dependence (slope) of E0' [1]: ~−90 mV/pH unit
O=C1C(O)=C(Cl)C(=O)C(O)=C1Cl [BQ(1,4)DHDCl, 2,5-dichloro-3,6-1,4-benzoquinone] | Quasireversble | 0.8(2) | < 10 mM | 10 mM (≈ 2090 µg/mL) | 0.394(1) VNHE |  |  |  | 1.3(1) | 1.2(4) | < 10 mM | change of E0' from acidic (pH 0) to alkaline (pH 13) [1]: 0.99 V; Electrochemical reversibility ([1]; pH 0): Reversible; pH dependence (slope) of E0' [1]: −76 mV/pH unit; Electrochemical reversibility ([1]; pH 7): Quasireversble; aqueous solubility, qualitative [2, 7]: insoluble in water
O=C1C(O)=C(O)C(=O)C(O)=C1O [BQ(1,4)TH, Tetrahydroxy-1,4-benzoquinone] | Quasireversible |  | < 10 mM | < 10 mM | 0.28 VNHE | completely loses its electrochemical activity |  |  |  |  | < 10 mM | Electrochemical reversibility ([1]; pH 6.2): Quasireversible
Oc1ccccc1O [HQ(1,2), Ortho hydroquinone] | Irreversible |  |  |  |  |  |  |  |  |  |  | Electrochemical reversibility ([1]; pH 0): Quasireversible; Electrochemical reversibility ([1]; pH 7): Quasireversible
O=S(=O)(O)c1cc(O)c(O)c(S(=O)(=O)O)c1 [HQ(1,2)DS, 4,5-dihydroxy-1,3-benzenedisulfonate disodium monohydrate] |  |  |  |  | 0.86(3) VNHE | Quasireversible | 0.7 VNHE |  | 0.4(1) |  |  | reduction/oxidation peak ratio ([1]; all pH values): significantly low; increase of E0' relative to ortho-BQ ([1]; two sulfonate groups): 50 mV
Oc1ccc(O)cc1 [HQ(1,4), Para hydroquinone] |  |  |  |  | 0.669(5) VNHE |  | 0.433(7) VNHE | 0.11(1) VNHE | 2.3(1) | 1.2(3) |  | Electrochemical reversibility ([1]; pH 0): Quasireversible; Electrochemical reversibility ([1]; pH 7): Quasireversible
O=S(=O)([O-])c1cc(O)ccc1O.[K+] [HQ(1,4)S, 2,5-dihydroxybenzenesulfonate potassium] |  |  |  |  | 0.664(8) VNHE | Quasireversible | 0.471(4) VNHE | -0.07(1) VNHE |  |  |  | 
Oc1c(Cl)c(Cl)c(O)c(Cl)c1Cl [HQ(1,4)TCl, Tetrachloro hydroquinone] |  |  |  |  | 0.70(1) VNHE | Quasireversible | 0.277(1) VNHE | 0.08(1) VNHE | 0.72(5) | 1.1(2) |  | aqueous solubility, qualitative [2]: insoluble in water; solubility [2]: < 10 mM; solubility [2, 8]: < 10 mM; solubility [2, 9]: < 10 mM
Oc1c(F)c(F)c(O)c(F)c1F [HQ(1,4)TF, 1,2,4,5-tetrafluoro-3,6-dihydroxybenzene] |  | 0.2(1) |  | 10 mM (≈ 1820 µg/mL) | 0.707(4) VNHE | Quasireversible | 0.23(7) VNHE | -0.05(6) VNHE | 0.5(1) | 0.21(7) |  | 
O=C1C=C(S(=O)(=O)O)c2ccccc2C1=O [NQ(1,2)S, 1,2-naphtoquinone-4-sulfonate sodium] |  | 0.9(1) |  | ~10 mM | 0.55(1) VNHE | Quasireversible | 0.24(1) VNHE |  | 0.8(1) | 0.52(3) | 900 mM | 
O=C1C(Cl)=C(Cl)C(=O)c2c(O)ccc(O)c21 [NQ(1,4)DHDCl, 2,3-dichloro-5,8-dihydroxy-1,4-naphtoquinone] |  |  | < 10 mM | < 10 mM |  | electrochemically irreversible |  | ≈ 0.4 VNHE |  |  | < 10 mM | aqueous solubility, qualitative [2, 7]: insoluble in water
O=C1C=C(O)C(=O)c2ccccc21 [NQ(1,4)H, 2-hydroxy-1,4-naphtoquinone] | seemingly reversible | 0.73(6) | < 10 mM | < 10 mM | 0.308(4) VNHE | Quasireversible |  |  | 0.81(8) | 1.2(3) | 820 mM (≈ 143000 µg/mL) | change of E0' from acidic (pH 0) to alkaline (pH 13) [1]: 0.8 V; pH dependence (slope) of E0' [1]: 67 mV/pH unit
CC(C)=CCC1=C(O)C(=O)c2ccccc2C1=O [NQ(1,4)HB, 2-hydroxy-3-(3-methyl-2-butenyl)-1,4-naphthoquinone] | Quasireversible | 0.38(4) | < 10 mM | < 10 mM | 0.333(3) VNHE |  |  |  |  | 1.08(5) | 700 mM (≈ 170000 µg/mL) | change of E0' from acidic (pH 0) to alkaline (pH 13) [1]: 0.8 V; Electrochemical reversibility ([1]; pH 0): Quasireversible; pH dependence (slope) of E0' [1]: 67 mV/pH unit; Electrochemical reversibility ([1]; pH 7): Reversible
c1ccc2nc3ccccc3nc2c1 [Phenazine] |  |  |  |  | 0.403(3) VNHE |  | Unstable | Unstable |  |  |  | solubility [2]: < 10 mM; solubility [2, 8]: 10 mM (≈ 1800 µg/mL); solubility [2, 9]: < 10 mM
c1cnccn1 [Pyrazine, 1,4-diazine] |  |  | ~7000 mM (≈ 561000 µg/mL) | ~7000 mM (≈ 561000 µg/mL) | -0.013(2) VNHE |  | Unstable | Unstable |  |  | ~7000 mM (≈ 561000 µg/mL) | 
O=C1C=CC(=O)C=C1 [para-BQ] |  |  |  |  |  |  |  | 0.11 VNHE |  |  |  | pH dependence (slope) of E0' [1]: −45 mV/pH unit
